Assay results reported in patent US10301279B2, “Piperidine carboxamide compound, preparation method, and use thereof” (Institute of Pharmacology and Toxicology Academy of …, priority 2013, dated 2019).
Like-named read-outs stand apart in the source and are kept apart here.

How the values were obtained:
[1] = target: T1, Hsp70 (Homo sapiens, UniProt P0DMV8); assay: Measurement of affinity for Hsp70 (BIACORE T100, CM5 chip); type: binding; conditions: for effect in preliminary screening of binding to Hsp70, compared with positive compound VER-155008: at 10 μm; for Kd: steady state model, 25° C., PBS containing 5% DMSO
T1 construct: purchased Enzo Life Sciences ADI-ESP-550-D
T1 sequence (P0DMV8 whole entry): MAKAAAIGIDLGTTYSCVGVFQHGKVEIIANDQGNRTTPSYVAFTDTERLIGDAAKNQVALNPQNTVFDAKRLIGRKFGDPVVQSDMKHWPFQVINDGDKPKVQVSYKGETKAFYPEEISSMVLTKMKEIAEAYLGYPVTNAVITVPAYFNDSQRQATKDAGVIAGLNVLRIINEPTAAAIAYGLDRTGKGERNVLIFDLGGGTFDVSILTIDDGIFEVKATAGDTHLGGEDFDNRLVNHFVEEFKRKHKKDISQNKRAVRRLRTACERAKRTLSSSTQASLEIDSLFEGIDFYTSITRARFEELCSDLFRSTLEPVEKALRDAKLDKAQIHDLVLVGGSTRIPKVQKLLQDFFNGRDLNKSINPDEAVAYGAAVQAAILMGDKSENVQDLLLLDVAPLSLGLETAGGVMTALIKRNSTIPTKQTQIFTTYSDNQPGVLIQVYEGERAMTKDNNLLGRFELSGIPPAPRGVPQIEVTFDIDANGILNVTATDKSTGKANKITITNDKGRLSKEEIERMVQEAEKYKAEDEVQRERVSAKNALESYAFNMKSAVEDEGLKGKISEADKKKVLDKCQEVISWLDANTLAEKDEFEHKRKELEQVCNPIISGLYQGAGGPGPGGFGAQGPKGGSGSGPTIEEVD
Procedure: 1. Instrument: BIACORE T100 biomolecular interaction analyzer (GE, USA)
2. Reagents: PBS Buffer (×10), P20, CM5 chip (GE, USA), Hsp70 (human, ADI-ESP-550-D), manufactured by Enzo Life Sciences.
30 mM mother liquor of compound was formulated with DMSO, which was diluted to 2 mM application solution with DMSO before use. 5 μl of the application solution was taken and diluted with 95 μl 1.05×PBS to 100 μM, and then diluted in turn with PBS containing 5% DMSO to 10, 3, 1, 0.3, 0.1, 0.03, 0.01, 0.003 μM, […]. PBS containing 5% DMSO was used as solvent control.
Hsp70 protein was diluted with 10 mmol/L sodium acetate buffer solution (pH 5.0) to 30 μg/ml, and coupled directly on a hydrophilic carboxylmethyl dextran matrix sensor chip M5 through normalized primary amine coupling reaction, RU=11209, and then the chip was balanced for 1-2 h with PBS Buffer at […].
At a flow rate of […], with PBS containing 5% DMSO as mobile phase, at 25° C., the compound was introduced in the sequence of 0.003, 0.01, 0.03, 0.1, 0.3, 1, 3 and 10 μM, with binding time 90 seconds, and dissociation time 120 seconds.
According to binding characteristics between the compounds and protein, the binding constant (equilibrium dissociation constant KD) between drugs and protein was calculated by selecting steady state model with the formula: Conc*Rmax/[conc+KD]+offset.
At a flow rate of […], PBS containing 5% DMSO as mobile phase, at 25° C., the compound was injected in the order of 0.003, 0.01, 0.03, 0.1, 0.3, 1, 3, and 10 μM, with the binding time of 90 sec, and the dissociation time of 120 sec.

[2] = tested on: MDA-MB-453; assay: Cell survival (ATPlite/CellTiter-Glo luminescence), alone and combined with lapatinib; type: cell-based, human; conditions: MDA-MB-453 cells; for Survival rate %: 72 hours
Procedure: (§1) Cells plating: a 100 mm culture dish with overgrown adherent cells was digested with 1 ml 0.25% trypsin (GIBCO) at 37° C. for 5 min, and the reaction was terminated with 2 ml culture medium (containing 10% FBS, GIBCO). The cells were scattered and collected, after counting, diluted to 1×10^5 cells/ml, and seeded into a 96-well plate at 50 μl/well, 5000 cells/well, excluding the peripheral circle of wells to which no cell was added, but PBS was added, 60 wells in total, and then incubated at 37° C. for 24 hours for adhering.
(§2) Test after incubation at 37° C. for 72 hours: […] of ATPlite kit substrate solution was added in each well, and vibrated for 3 min, followed by placing aside in darkness for 10 min, and then supernatant 100 μl/well was taken and placed on aluminescence test plate; the luminescence test plate that has been fully incubated was placed in a luminescence test instrument, to read luminescence value.
(§3) (1) Cell survival rate (%)=Experimental group RLU/control group RLU×100%. The experimental data were subjected to data analysis and processing by utilizing GraphPad software.
(§4) (2) The nature of interaction between two drugs was evaluated by using coefficient of drug interaction (CDI), CDI being calculated as follows: CDI=AB/(A×B)×100%. As calculated according to the number of viable cells (luminescence value), when CDI<1, the nature of interaction between two drugs is synergism; when CDI<0.7, the synergism is very significant; when CDI=1, the nature of interaction between two drugs is addition; when CDI>1, the nature of interaction between two drugs is antagonism.

[3] = tested on: BT/Lap^R1.0; assay: as above; type: cell-based, human; conditions: BT/Lap^R1.0 cells; for Survival rate %: 72 hours
Procedure: as §1, §2, §3, §4

[4] = tested on: SK-BR3; assay: as above; type: cell-based, human; conditions: SK-BR3 cells; for Survival rate %: 72 hours
Procedure: as §1, §2, §3, §4

[5] = tested on: SK/Lap^R1.0; assay: as above; type: cell-based, human; conditions: SK/Lap^R1.0 cells, 72 hours
Procedure: as §1, §2, §3, §4

[6] = tested on: MDA-MB-361; assay: as above; type: cell-based, human; conditions: MDA-MB-361 cells, 72 hours
Procedure: as §1, §2, §3, §4

[7] = tested on: BT474; assay: as above; type: cell-based, human; conditions: BT474 cells; for Survival rate %: 72 hours
Procedure: as §1, §2, §3, §4

[8] = target: T1, Hsp70; conditions: literature value (Cancer Chemother Pharmacol 2010, 66: 535-545); read-out: affinity for Hsp70, literature value; cited from earlier work
[9] = Example 30 10 μM alone (Lapatinib 0)
[10] = Example 30 10 μM combined with Lapatinib 1 μM
[11] = Example 30 10 μM with Lapatinib 1 μM, CDI<1 synergism
[12] = Lapatinib 1 μM alone (Example 30 0 μM)

Question: With `CN(C(=O)OC(C)(C)C)C1CCN(c2nccc(Cl)n2)CC1` [Example 1, t-butyl N-methyl-N-[1-(4-chloropyrimidin-2-yl)piperidin-4-yl]carbamate] as the compound, how does the “effect in preliminary screening of binding to Hsp70, compared with positive compound VER-155008” value [1] read?
Answer: equivalent to that of positive compound VER-155008

Question: What about the Kd [1] of the same compound?
Answer: 2190 nM

Question: For `CN(C(=O)OC(C)(C)C)C1CCN(c2ccnc(Cl)n2)CC1` [Example 2, t-butyl N-methyl-N-[1-(2-chloropyrimidin-4-yl)piperidin-4-yl]carbamate], which “effect in preliminary screening of binding to Hsp70, compared with positive compound VER-155008” value [1] is on record?
Answer: equivalent to that of positive compound VER-155008

Question: What about the Kd [1] of the same compound?
Answer: 247 nM

Question: For `CN(C(=O)OC(C)(C)C)C1CCN(c2cc(Cl)ncn2)CC1` [Example 3, t-butyl N-methyl-N-[1-(6-chloropyrimidin-4-yl)piperidin-4-yl]carbamate], which “effect in preliminary screening of binding to Hsp70, compared with positive compound VER-155008” value [1] is on record?
Answer: equivalent to that of positive compound VER-155008

Question: What about the Kd [1] of the same compound?
Answer: 525 nM

Question: For `COc1nccc(N2CCC(N(C)C(=O)OC(C)(C)C)CC2)n1` [Example 5, t-butyl N-methyl-N-[1-(2-methoxypyrimidin-4-yl)piperidin-4-yl]carbamate], which “effect in preliminary screening of binding to Hsp70, compared with positive compound VER-155008” value [1] is on record?
Answer: equivalent to that of positive compound VER-155008

Question: Which “effect in preliminary screening of binding to Hsp70, compared with positive compound VER-155008” value [1] does the source give for `CSc1nccc(N2CCC(N(C)C(=O)OC(C)(C)C)CC2)n1` [Example 6, t-butyl N-methyl-N-[1-(2-methylthiopyrimidin-4-yl)piperidin-4-yl]carbamate] here?
Answer: equivalent to that of positive compound VER-155008

Question: What about the Kd [1] of the same compound?
Answer: 12700 nM

Question: Which “effect in preliminary screening of binding to Hsp70, compared with positive compound VER-155008” value [1] does the source give for `CSc1nccc(N2CCC(N(C)C(=O)O[C@H]3CCN(S(=O)(=O)c4cccs4)C3)CC2)n1` [Example 13, (S)-[1-(2-thienylsulfonyl)pyrrolidin-3-yl] N-methyl-N-[1-(2-methylthiopyrimidin-4-yl)piperidin-4-yl]carbamate] here?
Answer: equivalent to that of positive compound VER-155008

Question: What about the Kd [1] of the same compound?
Answer: 520 nM

Question: For `CN(C(=O)Cn1ccnc1)C1CCN(c2nccc(Cl)n2)CC1` [Example 30, N-methyl-N-[1-(4-chloropyrimidin-2-yl)piperidin-4-yl]-[2-(imidazol-1-yl)]acetamide], which “effect in preliminary screening of binding to Hsp70, compared with positive compound VER-155008” value [1] is on record?
Answer: equivalent to that of positive compound VER-155008

Question: What about the Kd [1] of the same compound?
Answer: 225 nM

Question: What about the Survival rate % [2, 9] of the same compound?
Answer: 82.8%

Question: What about the Survival rate % [2, 10] of the same compound?
Answer: 36.6%

Question: What about the “CDI (coefficient of drug interaction)” value [2, 11] of the same compound?
Answer: 1.26

Question: What about the Survival rate % [3, 9] of the same compound?
Answer: 92.5%

Question: And the Survival rate % [3, 10]?
Answer: 50.6%

Question: What about the “CDI (coefficient of drug interaction)” value [3, 11] of the same compound?
Answer: 1.03

Question: What about the Survival rate % [4, 9] of the same compound?
Answer: 83.8%

Question: What about the Survival rate % [4, 10] of the same compound?
Answer: 24.9%

Question: And the “CDI (coefficient of drug interaction)” value [4, 11]?
Answer: 1.13

Question: And the Survival rate % [5, 9]?
Answer: 94.2%

Question: What about the Survival rate % [5, 10] of the same compound?
Answer: 56.9%

Question: And the Survival rate % [6, 9]?
Answer: 104.1%

Question: What about the Survival rate % [6, 10] of the same compound?
Answer: 69.1%

Question: And the Survival rate % [7, 9]?
Answer: 93.5%

Question: What about the Survival rate % [7, 10] of the same compound?
Answer: 24.8%

Question: What about the “CDI (coefficient of drug interaction)” value [7, 11] of the same compound?
Answer: 1.05

Question: Which results are given for `COc1ccnc(N2CCC(N(C)C(=O)Cn3cncn3)CC2)n1` [Example 42, N-methyl-N-[1-(4-methoxypyrimidin-2-yl)piperidin-4-yl]-2-(1H-1,2,4-triazol-1-yl) acetamide]?
Answer: effect in preliminary screening of binding to Hsp70, compared with positive compound VER-155008 [1]: equivalent to that of positive compound VER-155008; Kd [1]: 434 nM

Question: For `CS(=O)(=O)CCNCc1ccc(-c2ccc3ncnc(Nc4ccc(OCc5cccc(F)c5)c(Cl)c4)c3c2)o1` [Lapatinib, reference compound], which Survival rate % [3, 12] is on record?
Answer: 53.0%

Question: And the Survival rate % [4, 12]?
Answer: 26.3%

Question: What about the Survival rate % [5, 12] of the same compound?
Answer: 92.7%

Question: What about the Survival rate % [6, 12] of the same compound?
Answer: 70.4%

Question: And the Survival rate % [7, 12]?
Answer: 25.1%

Question: For `N#Cc1ccc(COC[C@H]2O[C@@H](n3c(NCc4ccc(Cl)c(Cl)c4)nc4c(N)ncnc43)[C@H](O)[C@@H]2O)cc1` [VER-155008], which Kd [8] is on record?
Answer: 300 nM
